Data on 76 compounds can be found in PubChem BioAssay AID1996.

Each structure is given as a SMILES string. Converted amounts (≈) assume the structure as drawn.

The conditions of the data set: buffer; pH 7.4; 200.0 µM.
On to `O=C(Cc1ccccc1)Oc1coc(CSc2ncccn2)cc1=O`, for which the solubility (kinetic) (commonly solubility judged after dilution from a stock solution rather than from solid) was more than 53.2 µg/mL.
`Oc1ccc(-c2csc(Nc3ccccn3)n2)cc1O` displayed a solubility (kinetic) of 11.3 µg/mL (≈ 39.6 µM).
`CCCc1cc(C(=O)Nc2ccc(OC)cc2[N+](=O)[O-])cs1` registered a kinetic solubility of less than 0.3 µg/mL.
For `COc1nc2ccccc2nc1CCC(=O)O` the value was more than 34.8 µg/mL; for `NC(=O)CN1C(=O)NC2(CCCc3sccc32)C1=O` (stereo unspecified), more than 41.9 µg/mL.
Compound `O=C(OCC(=O)N(CCc1ccccc1)Cc1ccccc1)c1cccc(O)c1` yielded a kinetic solubility of 2.6 µg/mL (≈ 6.68 µM).
On to `C=CCn1c(C(CC)CC)nc2ccccc21`, for which the solubility (kinetic) worked out at 27.9 µg/mL (≈ 122 µM).
Consider `Cc1cc(C(=O)Nc2cccc(S(=O)(=O)N3CCOCC3)c2)c2ccccc2n1`, for which the kinetic solubility stood at 13.1 µg/mL (≈ 31.8 µM).
As to `CCOc1ccc(-c2nc3scc(-c4cccs4)c3c(=O)[nH]2)cc1`, the solubility (kinetic) is less than 0.4 µg/mL.
On to `COCC[N+]1(C)CCCCC1.[I-]`, for which the solubility (kinetic) is more than 42.8 µg/mL.
`COc1ccc(NC(=O)CCN2CCOCC2)c(OC)c1` had a kinetic solubility of more than 44.2 µg/mL.
As to `CCOc1ccc(C2NC(=O)NC(C)=C2[N+](=O)[O-])cc1OC` (stereo unspecified), the kinetic solubility is 45.5 µg/mL (≈ 148 µM).
With `O=C(CN1C(=O)c2ccccc2C1=O)Nc1cccc(O)c1` the figure was 37 µg/mL (≈ 125 µM).
For `COc1cccc(NC(=O)C2=COCCO2)c1` the value was more than 35.3 µg/mL; for `CC(C)c1nc(SCC(=O)NC(=O)NC(C)(C)C)n[nH]1`, more than 44.9 µg/mL.
For `CC(C)(C)c1ccc(N2C(=O)CSC2c2cccnc2)cc1` (stereo unspecified) the value was 43 µg/mL (≈ 138 µM); for `CCOc1nc(NCCO)nc(Nc2ccccc2F)n1`, more than 44 µg/mL.
`Cc1ccc(-c2cc(C(=O)N3CCCCCC3)no2)cc1` registered a solubility (kinetic) of 1.3 µg/mL (≈ 4.57 µM).
On to `CC1CN(C(=O)c2ccc(Oc3ccccc3)cc2)CC(C)O1` (stereo unspecified), for which the kinetic solubility is more than 46.7 µg/mL.
Take `CO/N=C/C(NC(=O)c1ccc(C(F)(F)F)cc1)C(=O)OC` (stereo unspecified): the kinetic solubility was more than 47.7 µg/mL.
With `COc1ccc2c(CC(=O)OCc3nc4ccsc4c(=O)[nH]3)coc2c1` the figure was 32.2 µg/mL (≈ 86.9 µM); with `Cc1ccc(C(=O)NCCN2CCOCC2)cc1C`, 38.1 µg/mL (≈ 145 µM); with `CC1CCC(NC(=O)c2cccn2C)CC1` (stereo unspecified), more than 33 µg/mL.
For the compound `COc1ccc(CCC(=O)NCc2ccccc2Cl)cc1OC`, the solubility (kinetic) is more than 50.1 µg/mL.
With `Cc1ccc(NC(=S)NCCc2c[nH]c3ccccc23)c(C)c1` the figure was 20.4 µg/mL (≈ 63.1 µM); with `Cc1cc(C)c(NC(=S)NC(CO)(CO)CO)c(C)c1`, more than 44.8 µg/mL; with `Cc1ccccc1-c1nc(C(=O)NCC2CCCO2)cc2c1[nH]c1ccccc12` (stereo unspecified), 3.2 µg/mL (≈ 8.3 µM).
As for `CN(CC(=O)NCCc1ccccc1)CC(=O)Nc1cccc(F)c1`, the solubility (kinetic) was more than 51.5 µg/mL.
With `O=C(OCC(=O)N1CCCC1)c1cc(Cl)ccc1[N+](=O)[O-]` the figure was more than 46.9 µg/mL; with `NC(=O)c1cccc(C(N)=O)n1`, more than 24.8 µg/mL.
For `CCCS(=O)(=O)Nc1c(C(=O)O)[nH]c2ccc(OC)cc12` the value was 46.3 µg/mL (≈ 148 µM).
For `O=C(CCNC(=O)c1ccc([N+](=O)[O-])cc1)Nc1ccc(F)cc1` the value was 21.8 µg/mL (≈ 65.8 µM).
Turning to `COc1ccccc1C(=O)NCCCNC(=O)c1cnccn1`, the solubility (kinetic) was found to be 36.6 µg/mL (≈ 116 µM).
On to `COCCNC(=O)c1cc2cc(Cl)cc(Cl)c2oc1=O`, for which the solubility (kinetic) stood at 9.2 µg/mL (≈ 29.1 µM).
For `Oc1cc2c(cc1CN1CCN(c3ccc(F)cc3)CC1)OCO2`, the kinetic solubility worked out at 5.7 µg/mL (≈ 17.3 µM).
In the case of `Cc1cc(N2CCN(C(=O)c3ccco3)CC2)c2ccccc2n1`, the kinetic solubility is 44.7 µg/mL (≈ 139 µM). This solubility kinetic is about 7.8-fold higher than that of the compound before.
Take `CC(C)(C)NS(=O)(=O)c1ccc(NC(=S)NC(=O)C2CCC2)cc1`: the solubility (kinetic) worked out at 1.1 µg/mL (≈ 2.98 µM).
With `O=C(c1ccco1)N1CCN(C23CC4CC(CC(C4)C2)C3)CC1` the figure was more than 47.2 µg/mL; with `O=C(CN1C(=O)COc2ccc(Cl)cc21)NC1CC1`, more than 42.1 µg/mL.
Take `CCOc1ccc(CNc2ccc3c(c2)ncn3C(C)(C)C)cc1`: the solubility (kinetic) came out at 46.3 µg/mL (≈ 143 µM).
With `O=C(Cc1ccccc1)NCC(=O)N/N=C/c1ccc(C(=O)O)cc1` the figure was more than 50.9 µg/mL; with `CC(C)CCNCC(O)CON=C1c2ccccc2-c2ccccc21` (stereo unspecified), 47.4 µg/mL (≈ 140 µM); with `O=C(O)CCNS(=O)(=O)c1ccc2c(c1)CCCC2`, more than 42.5 µg/mL.
With `Cl.OC(CNCc1ccc(Cl)c(Cl)c1)c1ccccc1` (stereo unspecified) the figure was 47.7 µg/mL.
For `CC(C)c1ccc(NC2=CC(=O)CC(C)(C)C2)cc1` the value was 2.6 µg/mL (≈ 10.1 µM).
`O=C(CSc1nccc(=O)[nH]1)NC1CCCC1` displayed a kinetic solubility of 36 µg/mL (≈ 142 µM).
On to `Cc1ccc(NC(=O)c2cnc3ccccc3n2)cc1C`, for which the kinetic solubility turned out to be 0.3 µg/mL (≈ 1.08 µM).
The compound `Cc1cc(C(=O)NC2CCC(O)CC2)c(C)o1` (stereo unspecified) gave a kinetic solubility of more than 35.6 µg/mL.
In the case of `COc1ccc(CC(=O)O/N=C(\N)c2ccccn2)cc1`, the solubility (kinetic) is more than 42.8 µg/mL.
The compound `COc1cc(/C=C(\CCC(=O)O)c2nc3ccccc3s2)ccc1OCC(=O)Nc1c(Cl)cccc1Cl` came in with a kinetic solubility of 24.2 µg/mL (≈ 43.4 µM).
Consider `CC(CCc1ccccc1)NC(=O)CN(C)Cc1ccc(F)cc1` (stereo unspecified), for which the kinetic solubility is 34.4 µg/mL (≈ 105 µM). This solubility kinetic and that of the compound before are within 1.5-fold of each other.
As to `Cc1ccccc1NC(=O)CCN1CCN(CCO)CC1`, the kinetic solubility was 42.4 µg/mL (≈ 146 µM).
With `CCCN1CCN(CCNC(=O)Nc2ccccc2Cl)CC1`, the kinetic solubility was more than 48.7 µg/mL.
The compound `CCCCNC(=O)COC(=O)c1ccccc1F` registered a solubility (kinetic) of 37.9 µg/mL (≈ 150 µM).
For `O=C(COC(=O)Cc1ccsc1)Nc1ccc(Cl)cc1F` the value was 47.7 µg/mL (≈ 146 µM).
With `COc1ccc(C)cc1NC(=O)NCc1ccco1` the figure was 11 µg/mL (≈ 42.3 µM); with `CCSc1nc2ccccc2c(=O)n1Cc1ccc(F)cc1`, less than 0.3 µg/mL.
In turn, `CC1CC(C)CN(C(=O)c2cccc(S(=O)(=O)NCc3ccccc3)c2)C1` (stereo unspecified) gave a solubility (kinetic) of more than 58 µg/mL.
With `CC1CCCCC12NC(=O)N(CC(=O)NCCc1ccccc1)C2=O` (stereo unspecified) the figure was more than 51.5 µg/mL; with `NC(=O)c1ccc(Nc2ccc3nonc3c2[N+](=O)[O-])cc1`, 17.9 µg/mL (≈ 59.8 µM); with `Cc1nc(Oc2ccccc2)c2ccsc2n1`, 20 µg/mL (≈ 82.5 µM).
`COc1ccc(CNC(=O)c2coc(=O)c3ccccc23)cc1` returned a solubility (kinetic) of 30.8 µg/mL (≈ 99.6 µM).
The compound `Cc1cccn2c(=O)c3cc(C(=O)NCC(C)C)sc3nc12` showed a solubility (kinetic) of 1.2 µg/mL (≈ 3.8 µM).
With `O=C(NCc1ccc(Cl)cc1)C1CCN(c2cnccn2)CC1` the figure was more than 49.6 µg/mL.
As for `CCCc1nc2oc3ccccc3c(=O)c2c(=O)n1CCCOC`, the solubility (kinetic) was more than 49.3 µg/mL.
For `Cc1cc(N(C)Cc2ccccc2)nc2cc(O)ccc12` the value was 30.5 µg/mL (≈ 110 µM).
In turn, `Cn1ccsc1=NC(=O)c1ccc(CS(C)(=O)=O)cc1` showed a kinetic solubility of more than 46.6 µg/mL.
As for `CC(C)CNC(=O)C(=O)NCC1OCCCN1S(=O)(=O)c1cccs1` (stereo unspecified), the solubility (kinetic) is more than 58.4 µg/mL.
For `CCN(C(=S)Nc1cccnc1)c1ccccc1` the value was 36.3 µg/mL (≈ 141 µM).
With `O=C(O)CC(CC(=O)N1CCOCC1)c1ccccc1` (stereo unspecified) the figure was more than 41.6 µg/mL; with `CCC1(CC)Cc2ccccc2-c2nc(CN(C)C)[nH]c(=O)c21`, 10.8 µg/mL (≈ 34.7 µM).
For `O=C(OCc1cc(=O)n2ccsc2n1)c1ccccc1NCCO` the value was more than 51.8 µg/mL.
In turn, `OCCN(Cc1ccccc1)c1ncnc2sccc12` registered a kinetic solubility of more than 42.8 µg/mL.
For `CCOC(=O)c1sc(NC(=O)c2ccc(OC(C)=O)cc2)nc1C` the value was 0.7 µg/mL (≈ 2.01 µM); for `C#CCn1c(=O)cc(C)c2ccccc21`, more than 29.6 µg/mL; for `O=C(NCCc1ccc(Cl)cc1Cl)c1cccnc1`, more than 44.3 µg/mL.
